Experimental data published in ChEMBL document CHEMBL1129948, “Synthesis and anti-trypanosomal activity of various 8-aza-7-deaza-5'noraristeromycin derivatives” (J Med Chem, 1997).
Activity calls are given as the source filed them. No cut-off for these calls is given here.

Assays:
Trypanosoma brucei [1] = assay: (§1) Inhibition of growth of Trypanosoma uM); format: functional, organism-based
Vero = assay: Cytotoxic activity of compound against Vero cell line; No toxicity; format: functional, cell-based; conditions: Chlorocebus sabaeus
E6SM = assay: Cytotoxic activity of compound against E6SM cell line; No toxicity; format: functional, cell-based; conditions: Homo sapiens
HeLa = assay: Cytotoxic activity of compound against HeLa cell line; No toxicity; format: functional, cell-based; conditions: Homo sapiens
HEL = assay: Cytotoxic activity of compound against HEL cell line; No toxicity; format: functional, cell-based; conditions: Homo sapiens
Trypanosoma brucei [2] = assay: as §1; format: functional, organism-based; remark: listed apart in the source
Trypanosoma brucei [3] = assay: (§2) Inhibition of growth of Trypanosoma uM concentration; format: functional, organism-based
Trypanosoma brucei [4] = assay: as §2; format: functional, organism-based; remark: listed apart in the source
Trypanosoma brucei [5] = assay: as §2; format: functional, organism-based; remark: listed apart in the source
Trypanosoma brucei [6] = assay: as §1; format: functional, organism-based; remark: listed apart in the source
Trypanosoma brucei [7] = assay: as §1; format: functional, organism-based; remark: listed apart in the source
Trypanosoma brucei [8] = assay: as §2; format: functional, organism-based; remark: listed apart in the source
Trypanosoma brucei [9] = assay: as §2; format: functional
Trypanosoma brucei [10] = assay: as §2; format: functional; remark: listed apart in the source

Row | SMILES | IC50 (Trypanosoma brucei [1]) | IC50 (Trypanosoma brucei [2]) | IC50 (Trypanosoma brucei [3]) | IC50 (Trypanosoma brucei [4]) | IC50 (Trypanosoma brucei [5]) | IC50 (Trypanosoma brucei [6]) | IC50 (Trypanosoma brucei [7]) | IC50 (Trypanosoma brucei [8]) | Cytotoxic activity (Vero) | Cytotoxic activity (E6SM) | Cytotoxic activity (HeLa) | Cytotoxic activity (HEL) | Inhibition (Trypanosoma brucei [9]) | Inhibition (Trypanosoma brucei [10])
1 | Nc1ncnc2c1cnn2[C@@H]1C=C[C@H](O)C1 | > 100 µM | > 100 µM |  |  |  |  |  |  | No toxicity | No toxicity | No toxicity | No toxicity |  | 
2 | Nc1ncnc2c1ccn2[C@H]1C[C@@H](O)[C@H](O)[C@@H]1O |  |  | 1.55 µM | 0.85 µM |  |  |  | 5.3 µM | inactive | inactive | Non-toxic | inactive |  | 
3 | Nc1ncnc2c1cnn2[C@@H]1C=C[C@@H](O)[C@H]1O | > 100 µM | > 100 µM |  |  |  | > 100 µM | > 100 µM |  | No toxicity | No toxicity | No toxicity | No toxicity |  | 
4 | Nc1ncnc2c1cnn2[C@H]1C=C[C@@H](O)C1 | > 100 µM | > 100 µM |  |  |  | > 100 µM | > 100 µM |  | No toxicity | No toxicity | No toxicity | No toxicity |  | 
5 | Nc1ncnc2c1cnn2[C@H]1C=C[C@H](O)[C@@H]1O |  |  |  | > 100 µM | > 100 µM |  |  |  | No toxicity | No toxicity | No toxicity | No toxicity |  | 
6 | Nc1ncnc2c1cnn2[C@H]1CC[C@H](O)[C@@H]1O |  |  |  |  |  |  |  |  | No toxicity | No toxicity | No toxicity | No toxicity | 37% | 23%

Second part, led by results:

Row | IC50 (Trypanosoma brucei [1]) | IC50 (Trypanosoma brucei [2]) | IC50 (Trypanosoma brucei [3]) | IC50 (Trypanosoma brucei [4]) | IC50 (Trypanosoma brucei [5]) | IC50 (Trypanosoma brucei [6]) | IC50 (Trypanosoma brucei [7]) | IC50 (Trypanosoma brucei [8]) | SMILES | Cytotoxic activity (Vero) | Cytotoxic activity (E6SM) | Cytotoxic activity (HeLa) | Cytotoxic activity (HEL) | Inhibition (Trypanosoma brucei [9]) | Inhibition (Trypanosoma brucei [10])
7 |  |  | 14 µM | 12.2 µM | 16.8 µM |  |  |  | C[C@H]1C[C@@H](n2ncc3c(N)ncnc32)[C@H](O)[C@@H]1O | No toxicity | No toxicity | No toxicity | No toxicity |  | 
8 | > 100 µM | > 100 µM |  |  |  | > 100 µM | > 100 µM |  | C[C@@H]1C[C@H](n2ncc3c(N)ncnc32)[C@@H](O)[C@H]1O | No toxicity | No toxicity | No toxicity | No toxicity |  | 
9 |  |  | 67 µM | 53 µM | 44 µM |  |  | 72 µM | Nc1ncnc2c1cnn2[C@H]1C[C@@H](O)[C@H](O)[C@@H]1O | No toxicity | No toxicity | No toxicity | No toxicity |  | 
10 | > 100 µM | > 100 µM |  |  |  | > 100 µM | > 100 µM |  | Nc1ncnc2c1cnn2[C@@H]1CC[C@@H](O)[C@H]1O | No toxicity | No toxicity | No toxicity | No toxicity |  | 
11 | > 100 µM | > 100 µM |  |  |  |  |  |  | Nc1ncnc2c1cnn2[C@@H]1C[C@H](O)[C@@H](O)[C@H]1O | No toxicity | No toxicity | No toxicity | No toxicity |  | 
